Test results reported in PubChem BioAssay AID1963852 (Molecular Pharmacology Branch, DTP, NCI, 2024).

Test system: 282377-053-R-J1-PDC complex spheroid viability
Assay: Anticancer human tumor 282377-053-R-J1-PDC patient-derived colon adenocarcinoma cell line growth inhibition [POLQ]
Details: for IC50: curve of first compound; for viability, T/C: stronger effect = lower value
Outline: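 Three-cell-type spheroids modelling solid tumor plus stroma served as the readout system; POL inhibitors were tested individually and in combination, concentration ranges set by clinical Cmax where known.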

[1] = second compound 0.0316 µM, first compound 0.00316 µM
[2] = second compound 0.0316 µM, first compound 0.01 µM
[3] = second compound 0.0316 µM, first compound 0.0316 µM
[4] = second compound 0.0316 µM, first compound 0.1 µM
[5] = second compound 0.1 µM, first compound 0.00316 µM
[6] = second compound 0.1 µM, first compound 0.01 µM
[7] = second compound 0.1 µM, first compound 0.0316 µM
[8] = second compound 0.1 µM, first compound 0.1 µM
[9] = second compound 0.316 µM, first compound 0.00316 µM
[10] = second compound 0.316 µM, first compound 0.01 µM
[11] = second compound 0.316 µM, first compound 0.0316 µM
[12] = second compound 0.316 µM, first compound 0.1 µM
[13] = second compound 1 µM, first compound 0.00316 µM
[14] = second compound 1 µM, first compound 0.01 µM
[15] = second compound 1 µM, first compound 0.0316 µM
[16] = second compound 1 µM, first compound 0.1 µM
[17] = second compound 3.16 µM, first compound 0.00316 µM
[18] = second compound 3.16 µM, first compound 0.01 µM
[19] = second compound 3.16 µM, first compound 0.0316 µM
[20] = second compound 3.16 µM, first compound 0.1 µM
[21] = second compound 10 µM, first compound 0.00316 µM
[22] = second compound 10 µM, first compound 0.01 µM
[23] = second compound 10 µM, first compound 0.0316 µM
[24] = second compound 10 µM, first compound 0.1 µM
[25] = second compound 0.0316 µM, first compound 0.316 µM
[26] = second compound 0.0316 µM, first compound 1 µM
[27] = second compound 0.0316 µM, first compound 3.16 µM
[28] = second compound 0.0316 µM, first compound 10 µM
[29] = second compound 0.1 µM, first compound 0.316 µM
[30] = second compound 0.1 µM, first compound 1 µM
[31] = second compound 0.1 µM, first compound 3.16 µM
[32] = second compound 0.1 µM, first compound 10 µM
[33] = second compound 0.316 µM, first compound 0.316 µM
[34] = second compound 0.316 µM, first compound 1 µM
[35] = second compound 0.316 µM, first compound 3.16 µM
[36] = second compound 0.316 µM, first compound 10 µM
[37] = second compound 1 µM, first compound 0.316 µM
[38] = second compound 1 µM, first compound 1 µM
[39] = second compound 1 µM, first compound 3.16 µM
[40] = second compound 1 µM, first compound 10 µM
[41] = second compound 3.16 µM, first compound 0.316 µM
[42] = second compound 3.16 µM, first compound 1 µM
[43] = second compound 3.16 µM, first compound 3.16 µM
[44] = second compound 3.16 µM, first compound 10 µM
[45] = second compound 10 µM, first compound 0.316 µM
[46] = second compound 10 µM, first compound 1 µM
[47] = second compound 10 µM, first compound 3.16 µM
[48] = second compound 10 µM, first compound 10 µM
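Note: spheroids exposed to compounds for seven days.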
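Throughout, for viability, T/C: 100% = DMSO vehicle control viability.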

SMILES: CC[C@@]1(O)C(=O)OCc2c1cc1n(c2=O)Cc2cc3c(CN(C)C)c(O)ccc3nc2-1 + COC1C(OC(N)=O)C(O)C(Oc2ccc3c(O)c(NC(=O)c4ccc(O)c(CC=C(C)C)c4)c(=O)oc3c2C)OC1(C)C
- IC50 (second compound 0.0316 µM): > 100 nM
- IC50 (second compound 0.1 µM): > 100 nM
- IC50 (second compound 0.316 µM): > 100 nM
- IC50 (second compound 1 µM): > 100 nM
- IC50 (second compound 3.16 µM): > 100 nM
- IC50 (second compound 10 µM): > 100 nM
- viability, T/C (second compound 0.0316 µM, first compound 0.000316 µM): 120%
- viability, T/C (second compound 0.0316 µM, first compound 0.001 µM): 114%
- viability, T/C [1]: 119%
- viability, T/C [2]: 99.6%
- viability, T/C [3]: 112%
- viability, T/C [4]: 72%
- viability, T/C (second compound 0.1 µM, first compound 0.000316 µM): 130%
- viability, T/C (second compound 0.1 µM, first compound 0.001 µM): 106%
- viability, T/C [5]: 116%
- viability, T/C [6]: 115%
- viability, T/C [7]: 106%
- viability, T/C [8]: 64.6%
- viability, T/C (second compound 0.316 µM, first compound 0.000316 µM): 106%
- viability, T/C (second compound 0.316 µM, first compound 0.001 µM): 105%
- viability, T/C [9]: 85.3%
- viability, T/C [10]: 100%
- viability, T/C [11]: 110%
- viability, T/C [12]: 69.3%
- viability, T/C (second compound 1 µM, first compound 0.000316 µM): 101%
- viability, T/C (second compound 1 µM, first compound 0.001 µM): 112%
- viability, T/C [13]: 131%
- viability, T/C [14]: 91.2%
- viability, T/C [15]: 91.8%
- viability, T/C [16]: 70.5%
- viability, T/C (second compound 3.16 µM, first compound 0.000316 µM): 102%
- viability, T/C (second compound 3.16 µM, first compound 0.001 µM): 105%
- viability, T/C [17]: 97.5%
- viability, T/C [18]: 123%
- viability, T/C [19]: 111%
- viability, T/C [20]: 58.5%
- viability, T/C (second compound 10 µM, first compound 0.000316 µM): 112%
- viability, T/C (second compound 10 µM, first compound 0.001 µM): 110%
- viability, T/C [21]: 111%
- viability, T/C [22]: 80.7%
- viability, T/C [23]: 102%
- viability, T/C [24]: 70.3%

SMILES: CNCc1ccc(-c2[nH]c3cc(F)cc4c3c2CCNC4=O)cc1 + COC1C(OC(N)=O)C(O)C(Oc2ccc3c(O)c(NC(=O)c4ccc(O)c(CC=C(C)C)c4)c(=O)oc3c2C)OC1(C)C
- IC50 (second compound 0.0316 µM): > 10000 nM
- IC50 (second compound 0.1 µM): > 10000 nM
- IC50 (second compound 0.316 µM): > 10000 nM
- IC50 (second compound 1 µM): > 10000 nM
- IC50 (second compound 3.16 µM): > 10000 nM
- IC50 (second compound 10 µM): > 10000 nM
- viability, T/C [3]: 115%
- viability, T/C [4]: 118%
- viability, T/C [25]: 106%
- viability, T/C [26]: 110%
- viability, T/C [27]: 130%
- viability, T/C [28]: 159%
- viability, T/C [7]: 113%
- viability, T/C [8]: 106%
- viability, T/C [29]: 104%
- viability, T/C [30]: 108%
- viability, T/C [31]: 122%
- viability, T/C [32]: 152%
- viability, T/C [11]: 104%
- viability, T/C [12]: 98.4%
- viability, T/C [33]: 96.6%
- viability, T/C [34]: 100%
- viability, T/C [35]: 133%
- viability, T/C [36]: 157%
- viability, T/C [15]: 102%
- viability, T/C [16]: 99%
- viability, T/C [37]: 121%
- viability, T/C [38]: 103%
- viability, T/C [39]: 128%
- viability, T/C [40]: 160%
- viability, T/C [19]: 98.7%
- viability, T/C [20]: 111%
- viability, T/C [41]: 97.6%
- viability, T/C [42]: 87.4%
- viability, T/C [43]: 121%
- viability, T/C [44]: 167%
- viability, T/C [23]: 107%
- viability, T/C [24]: 122%
- viability, T/C [45]: 110%
- viability, T/C [46]: 106%
- viability, T/C [47]: 127%
- viability, T/C [48]: 162%

SMILES: COc1cccc(OCCCN)c1-c1cc(Nc2cnc(C#N)cn2)n[nH]1 + COC1C(OC(N)=O)C(O)C(Oc2ccc3c(O)c(NC(=O)c4ccc(O)c(CC=C(C)C)c4)c(=O)oc3c2C)OC1(C)C
- IC50 (second compound 0.0316 µM): 124 nM
- IC50 (second compound 0.1 µM): 56.2 nM
- IC50 (second compound 0.316 µM): 92.6 nM
- IC50 (second compound 1 µM): 111 nM
- IC50 (second compound 3.16 µM): 148 nM
- IC50 (second compound 10 µM): 93.6 nM
- viability, T/C [1]: 117%
- viability, T/C [2]: 106%
- viability, T/C [3]: 92.7%
- viability, T/C [4]: 51.4%
- viability, T/C [25]: 37.4%
- viability, T/C [26]: 29.5%
- viability, T/C [5]: 106%
- viability, T/C [6]: 114%
- viability, T/C [7]: 63.9%
- viability, T/C [8]: 46.2%
- viability, T/C [29]: 34.9%
- viability, T/C [30]: 25.6%
- viability, T/C [9]: 118%
- viability, T/C [10]: 83.9%
- viability, T/C [11]: 75.2%
- viability, T/C [12]: 46.4%
- viability, T/C [33]: 31.5%
- viability, T/C [34]: 30.9%
- viability, T/C [13]: 111%
- viability, T/C [14]: 76%
- viability, T/C [15]: 67.9%
- viability, T/C [16]: 60.6%
- viability, T/C [37]: 31%
- viability, T/C [38]: 33.2%
- viability, T/C [17]: 87.9%
- viability, T/C [18]: 84.3%
- viability, T/C [19]: 74.3%
- viability, T/C [20]: 49.3%
- viability, T/C [41]: 46.9%
- viability, T/C [42]: 30.5%
- viability, T/C [21]: 99.8%
- viability, T/C [22]: 81.4%
- viability, T/C [23]: 70.1%
- viability, T/C [24]: 47.4%
- viability, T/C [45]: 34.6%
- viability, T/C [46]: 26.5%

SMILES: O=C(c1cc(Cc2n[nH]c(=O)c3ccccc23)ccc1F)N1CCN(C(=O)C2CC2)CC1 + COC1C(OC(N)=O)C(O)C(Oc2ccc3c(O)c(NC(=O)c4ccc(O)c(CC=C(C)C)c4)c(=O)oc3c2C)OC1(C)C
- IC50 (second compound 0.0316 µM): > 10000 nM
- IC50 (second compound 0.1 µM): > 10000 nM
- IC50 (second compound 0.316 µM): > 10000 nM
- IC50 (second compound 1 µM): > 10000 nM
- IC50 (second compound 3.16 µM): > 10000 nM
- IC50 (second compound 10 µM): > 10000 nM
- viability, T/C [3]: 128%
- viability, T/C [4]: 97.7%
- viability, T/C [25]: 105%
- viability, T/C [26]: 106%
- viability, T/C [27]: 79.1%
- viability, T/C [28]: 103%
- viability, T/C [7]: 109%
- viability, T/C [8]: 120%
- viability, T/C [29]: 90.5%
- viability, T/C [30]: 87.8%
- viability, T/C [31]: 105%
- viability, T/C [32]: 101%
- viability, T/C [11]: 107%
- viability, T/C [12]: 90.1%
- viability, T/C [33]: 99.1%
- viability, T/C [34]: 97.7%
- viability, T/C [35]: 117%
- viability, T/C [36]: 98%
- viability, T/C [15]: 116%
- viability, T/C [16]: 94.7%
- viability, T/C [37]: 103%
- viability, T/C [38]: 119%
- viability, T/C [39]: 106%
- viability, T/C [40]: 96%
- viability, T/C [19]: 98.8%
- viability, T/C [20]: 108%
- viability, T/C [41]: 113%
- viability, T/C [42]: 103%
- viability, T/C [43]: 107%
- viability, T/C [44]: 98.8%
- viability, T/C [23]: 94%
- viability, T/C [24]: 99.4%
- viability, T/C [45]: 102%
- viability, T/C [46]: 110%
- viability, T/C [47]: 96%
- viability, T/C [48]: 80.8%
